What all share (experiment): Kinase inhibitor specificity profiling (Reaction Biology Corporation)
Holding throughout (assay type): biochemical
Holding throughout (set-up): % Enzyme Activity (relative to DMSO controls): concentration or dose not given beside the values

For test [1], the target named is T1, panel of 370 protein kinases (Homo sapiens, UniProt P08069).
T1 construct: purchased Reaction Biology Corporation (assay service)
To be noted: 2 h, kinase IGF1R; read-out: % Enzyme Activity (relative to DMSO controls).

Test [2] deals with T2, panel of 370 protein kinases (Homo sapiens, UniProt P08581).
T2 construct: purchased Reaction Biology Corporation (assay service)
T2 sequence (P08581 25-1390): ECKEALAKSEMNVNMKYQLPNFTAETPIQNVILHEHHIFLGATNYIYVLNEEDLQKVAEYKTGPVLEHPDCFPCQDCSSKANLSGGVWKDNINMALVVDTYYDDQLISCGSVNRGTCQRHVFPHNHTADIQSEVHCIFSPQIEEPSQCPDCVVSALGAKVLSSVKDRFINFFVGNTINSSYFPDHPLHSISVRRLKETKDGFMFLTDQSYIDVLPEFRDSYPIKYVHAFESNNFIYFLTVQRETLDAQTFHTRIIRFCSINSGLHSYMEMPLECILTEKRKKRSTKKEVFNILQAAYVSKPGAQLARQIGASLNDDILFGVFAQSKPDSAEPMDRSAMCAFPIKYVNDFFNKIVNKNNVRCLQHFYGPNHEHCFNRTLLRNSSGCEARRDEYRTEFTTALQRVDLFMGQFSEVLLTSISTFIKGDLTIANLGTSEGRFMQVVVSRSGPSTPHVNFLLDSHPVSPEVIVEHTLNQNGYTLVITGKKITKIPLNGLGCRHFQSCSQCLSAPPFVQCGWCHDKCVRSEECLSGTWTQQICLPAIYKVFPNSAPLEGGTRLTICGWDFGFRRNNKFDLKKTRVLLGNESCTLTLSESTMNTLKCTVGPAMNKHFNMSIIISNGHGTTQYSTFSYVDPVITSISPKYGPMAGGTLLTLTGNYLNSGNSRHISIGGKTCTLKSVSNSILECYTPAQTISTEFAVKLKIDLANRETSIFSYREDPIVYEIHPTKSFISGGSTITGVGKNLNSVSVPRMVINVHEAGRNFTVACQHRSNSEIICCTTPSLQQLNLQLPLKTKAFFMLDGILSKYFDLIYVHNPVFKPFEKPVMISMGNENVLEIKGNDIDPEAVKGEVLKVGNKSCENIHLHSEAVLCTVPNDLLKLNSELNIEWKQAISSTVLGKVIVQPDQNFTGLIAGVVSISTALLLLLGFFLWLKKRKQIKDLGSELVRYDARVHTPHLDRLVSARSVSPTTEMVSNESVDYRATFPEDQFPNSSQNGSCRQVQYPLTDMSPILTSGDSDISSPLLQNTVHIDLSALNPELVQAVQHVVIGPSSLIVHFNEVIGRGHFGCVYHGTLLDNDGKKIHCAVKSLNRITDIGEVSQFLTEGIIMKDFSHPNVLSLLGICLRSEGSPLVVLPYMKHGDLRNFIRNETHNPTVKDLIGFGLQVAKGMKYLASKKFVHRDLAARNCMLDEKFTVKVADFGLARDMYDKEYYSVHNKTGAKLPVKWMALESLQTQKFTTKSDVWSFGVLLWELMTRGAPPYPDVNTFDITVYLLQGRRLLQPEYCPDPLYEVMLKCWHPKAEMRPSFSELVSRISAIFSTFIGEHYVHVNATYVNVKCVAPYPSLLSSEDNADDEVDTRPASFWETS
To be noted: kinase c-MET.

For test [3], the target named is T3, panel of 370 protein kinases (Homo sapiens, UniProt P31751).
T3 construct: purchased Reaction Biology Corporation (assay service)
To be noted: 2 h, kinase AKT2; read-out: % Enzyme Activity (relative to DMSO controls).

Test [4] has as its target T4, panel of 370 protein kinases (Homo sapiens, UniProt P36507).
T4 construct: purchased Reaction Biology Corporation (assay service)
Conditions: 2 h, kinase MEK2; read-out: % Enzyme Activity (relative to DMSO controls).

Test [5] concerns the target T5, panel of 370 protein kinases (Homo sapiens, UniProt P37023).
T5 construct: purchased Reaction Biology Corporation (assay service)
Conditions: 2 h, kinase ALK1/ACVRL1; read-out: % Enzyme Activity (relative to DMSO controls).

The target in test [6] is T6, panel of 370 protein kinases (Homo sapiens, UniProt P49841).
T6 construct: purchased Reaction Biology Corporation (assay service)
Conditions: 2 h, kinase GSK3b; read-out: % Enzyme Activity (relative to DMSO controls).

Test [7] deals with T7, panel of 370 protein kinases (Homo sapiens, UniProt P50613).
T7 construct: purchased Reaction Biology Corporation (assay service)
To be noted: 2 h, kinase CDK7/cyclin H; read-out: % Enzyme Activity (relative to DMSO controls).

Test [8] deals with T8, panel of 370 protein kinases (Homo sapiens, UniProt P51813).
T8 construct: purchased Reaction Biology Corporation (assay service)
To be noted: 2 h, kinase BMX/ETK; read-out: % Enzyme Activity (relative to DMSO controls).

For test [9], the target named is T9, panel of 370 protein kinases (Homo sapiens, UniProt P52333).
T9 construct: purchased Reaction Biology Corporation (assay service)
Conditions: 2 h, kinase JAK3; read-out: % Enzyme Activity (relative to DMSO controls).

In test [10] the target is T10, panel of 370 protein kinases (Homo sapiens, UniProt P80192).
T10 construct: purchased Reaction Biology Corporation (assay service)
Conditions: 2 h, kinase MLK1/MAP3K9; read-out: % Enzyme Activity (relative to DMSO controls).

Test [11] concerns the target T11, panel of 370 protein kinases (Homo sapiens, UniProt Q09013).
T11 construct: purchased Reaction Biology Corporation (assay service)
Conditions: 2 h, kinase DMPK; read-out: % Enzyme Activity (relative to DMSO controls).

In test [12] the target is T12, panel of 370 protein kinases (Homo sapiens, UniProt Q13163).
T12 construct: purchased Reaction Biology Corporation (assay service)
To be noted: 2 h, kinase MEK5; read-out: % Enzyme Activity (relative to DMSO controls).

For test [13], the target named is T13, panel of 370 protein kinases (Homo sapiens, UniProt Q13627).
T13 construct: purchased Reaction Biology Corporation (assay service)
To be noted: 2 h, kinase DYRK1/DYRK1A; read-out: % Enzyme Activity (relative to DMSO controls).

Test [14] has as its target T14, panel of 370 protein kinases (Homo sapiens, UniProt Q16288).
T14 construct: purchased Reaction Biology Corporation (assay service)
Conditions: 2 h, kinase TRKC; read-out: % Enzyme Activity (relative to DMSO controls).

The target in test [15] is T15, panel of 370 protein kinases (Homo sapiens, UniProt Q8IU85).
T15 construct: purchased Reaction Biology Corporation (assay service)
To be noted: 2 h, kinase CAMK1d; read-out: % Enzyme Activity (relative to DMSO controls).

Test [16] has as its target T16, panel of 370 protein kinases (Homo sapiens, UniProt Q96SB4).
T16 construct: purchased Reaction Biology Corporation (assay service)
To be noted: 2 h, kinase SRPK1; read-out: % Enzyme Activity (relative to DMSO controls).

Test [17] concerns the target T17, panel of 370 protein kinases (Homo sapiens, UniProt Q9NYY3).
T17 construct: purchased Reaction Biology Corporation (assay service)
To be noted: kinase PLK2.

In test [18] the target is T18, panel of 370 protein kinases (Homo sapiens, UniProt Q9Y2U5).
T18 construct: purchased Reaction Biology Corporation (assay service)
T18 sequence (Q9Y2U5 whole entry): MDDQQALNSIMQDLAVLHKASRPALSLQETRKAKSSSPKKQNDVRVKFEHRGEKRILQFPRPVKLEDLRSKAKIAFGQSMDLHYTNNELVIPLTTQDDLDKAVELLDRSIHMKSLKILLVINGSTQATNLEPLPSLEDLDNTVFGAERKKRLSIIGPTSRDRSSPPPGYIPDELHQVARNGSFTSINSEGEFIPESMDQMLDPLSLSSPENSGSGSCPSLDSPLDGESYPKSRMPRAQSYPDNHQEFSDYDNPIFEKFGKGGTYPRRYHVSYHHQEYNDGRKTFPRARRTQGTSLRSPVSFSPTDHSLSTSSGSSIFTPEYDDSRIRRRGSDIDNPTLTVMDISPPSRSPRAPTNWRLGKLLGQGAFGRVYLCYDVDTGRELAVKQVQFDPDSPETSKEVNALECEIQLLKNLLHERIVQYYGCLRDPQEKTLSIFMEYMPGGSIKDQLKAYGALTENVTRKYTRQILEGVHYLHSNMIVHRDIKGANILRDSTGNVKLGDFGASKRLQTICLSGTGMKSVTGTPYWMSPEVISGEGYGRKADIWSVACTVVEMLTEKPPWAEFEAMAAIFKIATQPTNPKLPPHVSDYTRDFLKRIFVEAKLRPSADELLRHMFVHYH
Conditions: 2 h, kinase MEKK2; read-out: % Enzyme Activity (relative to DMSO controls).

For test [19], the target named is T19, panel of 370 protein kinases (Homo sapiens, UniProt Q9Y572).
T19 construct: purchased Reaction Biology Corporation (assay service)
Conditions: 2 h, kinase RIPK3; read-out: % Enzyme Activity (relative to DMSO controls).

Test [20] has as its target T20, panel of 370 protein kinases (Homo sapiens, UniProt Q9Y6E0).
T20 construct: purchased Reaction Biology Corporation (assay service)
To be noted: kinase MST3/STK24.

Test [21] relates to panel of 370 protein kinases.

Experimental findings from publication PMC9133015 (Nature Communications, 2022) are described below.

“And” between values parts separate entries of the source, which are not always exact repeats. Identical values can stand only once.

T20 sequence (Q9Y6E0 whole entry): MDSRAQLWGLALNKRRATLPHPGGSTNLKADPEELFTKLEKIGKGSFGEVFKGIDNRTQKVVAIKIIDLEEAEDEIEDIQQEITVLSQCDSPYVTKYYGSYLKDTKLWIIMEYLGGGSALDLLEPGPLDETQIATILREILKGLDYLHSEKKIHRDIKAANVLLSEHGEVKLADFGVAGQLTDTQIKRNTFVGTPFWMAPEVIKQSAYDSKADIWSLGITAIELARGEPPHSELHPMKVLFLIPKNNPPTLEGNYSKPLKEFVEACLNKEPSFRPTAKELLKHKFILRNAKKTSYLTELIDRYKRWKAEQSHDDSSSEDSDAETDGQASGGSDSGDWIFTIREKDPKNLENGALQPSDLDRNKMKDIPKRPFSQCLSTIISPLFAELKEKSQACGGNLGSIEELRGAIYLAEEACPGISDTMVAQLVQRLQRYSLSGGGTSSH
T17 sequence (Q9NYY3 whole entry): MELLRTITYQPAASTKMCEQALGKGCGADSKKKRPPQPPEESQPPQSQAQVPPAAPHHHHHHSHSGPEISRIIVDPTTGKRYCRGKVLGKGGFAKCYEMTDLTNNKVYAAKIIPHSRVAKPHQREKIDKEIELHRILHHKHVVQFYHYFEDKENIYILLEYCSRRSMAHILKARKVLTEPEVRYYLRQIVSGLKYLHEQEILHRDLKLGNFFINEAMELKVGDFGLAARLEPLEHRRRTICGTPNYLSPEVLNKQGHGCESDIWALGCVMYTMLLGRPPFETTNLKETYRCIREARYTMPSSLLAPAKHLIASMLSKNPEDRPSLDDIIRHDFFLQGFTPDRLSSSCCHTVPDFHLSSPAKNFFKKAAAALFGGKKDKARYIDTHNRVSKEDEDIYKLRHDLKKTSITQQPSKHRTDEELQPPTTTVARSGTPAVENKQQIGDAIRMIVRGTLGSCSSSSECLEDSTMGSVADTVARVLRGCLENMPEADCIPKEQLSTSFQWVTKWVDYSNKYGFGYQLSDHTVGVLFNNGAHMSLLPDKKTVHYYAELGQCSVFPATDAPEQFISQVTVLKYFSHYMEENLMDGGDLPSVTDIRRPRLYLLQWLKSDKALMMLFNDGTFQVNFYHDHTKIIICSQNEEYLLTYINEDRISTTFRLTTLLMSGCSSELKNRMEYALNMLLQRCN
T5 sequence (P37023 22-503): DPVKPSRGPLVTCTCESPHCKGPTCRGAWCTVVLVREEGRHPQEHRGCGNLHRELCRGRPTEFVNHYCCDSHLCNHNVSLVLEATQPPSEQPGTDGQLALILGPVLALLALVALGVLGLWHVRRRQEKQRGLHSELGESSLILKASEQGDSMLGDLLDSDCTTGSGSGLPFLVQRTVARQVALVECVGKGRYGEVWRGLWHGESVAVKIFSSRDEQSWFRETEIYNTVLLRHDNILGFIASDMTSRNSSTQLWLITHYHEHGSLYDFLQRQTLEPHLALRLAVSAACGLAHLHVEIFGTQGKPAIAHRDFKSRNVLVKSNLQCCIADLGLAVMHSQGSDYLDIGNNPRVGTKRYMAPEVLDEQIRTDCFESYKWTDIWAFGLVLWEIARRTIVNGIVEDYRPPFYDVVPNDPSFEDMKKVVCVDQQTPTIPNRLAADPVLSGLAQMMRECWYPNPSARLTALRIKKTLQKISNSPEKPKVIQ
T1 sequence (P08069 31-1367): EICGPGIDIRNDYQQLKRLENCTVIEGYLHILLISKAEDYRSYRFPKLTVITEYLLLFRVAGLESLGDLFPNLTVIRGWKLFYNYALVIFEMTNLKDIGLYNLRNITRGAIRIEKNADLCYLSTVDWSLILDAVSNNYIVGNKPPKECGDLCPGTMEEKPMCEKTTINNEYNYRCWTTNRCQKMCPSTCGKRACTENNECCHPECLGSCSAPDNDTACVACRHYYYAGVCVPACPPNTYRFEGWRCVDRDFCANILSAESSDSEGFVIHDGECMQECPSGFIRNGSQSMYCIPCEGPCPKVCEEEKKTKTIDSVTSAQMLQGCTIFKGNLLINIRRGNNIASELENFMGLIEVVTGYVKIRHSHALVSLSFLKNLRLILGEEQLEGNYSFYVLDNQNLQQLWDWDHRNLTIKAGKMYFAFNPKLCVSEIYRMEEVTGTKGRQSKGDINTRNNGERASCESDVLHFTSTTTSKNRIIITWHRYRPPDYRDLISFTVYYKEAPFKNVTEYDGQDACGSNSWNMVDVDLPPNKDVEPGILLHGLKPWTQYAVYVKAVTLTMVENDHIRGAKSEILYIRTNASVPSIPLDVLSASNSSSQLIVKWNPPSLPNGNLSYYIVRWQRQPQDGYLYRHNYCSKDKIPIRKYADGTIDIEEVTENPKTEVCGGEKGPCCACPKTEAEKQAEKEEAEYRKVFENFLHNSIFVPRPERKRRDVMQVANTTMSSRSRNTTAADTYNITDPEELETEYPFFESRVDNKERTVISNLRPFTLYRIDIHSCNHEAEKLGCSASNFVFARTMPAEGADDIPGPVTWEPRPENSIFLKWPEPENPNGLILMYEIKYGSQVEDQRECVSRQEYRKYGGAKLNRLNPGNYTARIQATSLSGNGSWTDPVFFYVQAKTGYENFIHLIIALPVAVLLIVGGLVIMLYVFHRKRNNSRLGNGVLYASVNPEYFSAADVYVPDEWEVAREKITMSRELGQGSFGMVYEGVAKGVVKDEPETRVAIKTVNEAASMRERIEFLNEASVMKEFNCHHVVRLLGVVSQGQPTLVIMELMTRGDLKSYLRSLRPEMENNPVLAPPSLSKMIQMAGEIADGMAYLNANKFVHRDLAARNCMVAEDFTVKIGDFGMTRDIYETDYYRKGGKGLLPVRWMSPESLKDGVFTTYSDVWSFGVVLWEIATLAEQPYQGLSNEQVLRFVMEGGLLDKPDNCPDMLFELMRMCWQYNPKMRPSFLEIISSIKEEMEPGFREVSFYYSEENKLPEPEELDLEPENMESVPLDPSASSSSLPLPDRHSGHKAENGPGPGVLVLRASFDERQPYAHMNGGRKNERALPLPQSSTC

As for `CCN1CCN(C(=O)c2ccc(Nc3ncc(F)c(-c4ccc5nc(N(C)C)sc5c4)n3)nc2)CC1` [YK-2-69], the remaining activity at 1 µM in test [1] turned out to be 102%; in [3], 98.6%; in test [4] it was 97.4%; in [5], 106%; in [6], 60.8%; in test [7] it was 99.1%. Also, the remaining activity at 1 µM is 80.6% in test [8]; 111% in test [9]; 111% in test [10]; 95.8% in test [11]; 96.3% in test [12]; 61.3% in [13]. Also, the remaining activity at 1 µM in test [14] is 77.7%; in test [15], 84.3%; in test [16], 91.8%; in test [18], 113%; in test [19], 102%. The “% Enzyme Activity (relative to DMSO controls)” value in test [2] is 79.77% and 77.94%; in test [17] it was 98.55% and 92.68%; in [20] it was 107.35% and 104.50%; in [21] (kinase LYN B), 102.77% and 100.49%; in test [21] (kinase PKCb2), 92.22% and 91.87%; in test [21] (kinase PKG1b) it was 114.44% and 107.54%. Further, the “kinase selectivity against 370 kinases” value in test [21] (1 µM) is on record as “selectivity over 360+ kinases”.
